This is an account of results in ChEMBL document CHEMBL4368940, “Development of a novel NURR1/NOT agonist from hit to lead and candidate for the potential treatment of Parkinson's disease” (Bioorg Med Chem Lett, 2019).

Series [1] in a line: Drug level in human hepatocytes treated with (3-(2-(4-chlorophenyl)imidazo[1,2-a]pyridin-6-yl)phenyl)methanol. The series is classed as ADME, cell-based, Hepatocyte.
Series [2] deals with Nuclear receptor subfamily 4 group A member 2 (Mus musculus) (UniProt Q06219). Briefly: Agonist activity at Nurr1 in co-culture of mouse primary neurons and microglia assessed as inhibition of LPS-induced neurotoxicity by measuring neuroprotection at 10 uM. Also noted: scale not given: the % may be the effect or the level left.
A short description of series [3]: Drug metabolism in human hepatocytes assessed as 3-(2-(4-chlorophenyl)imidazo[1,2-a]pyridin-6-yl)benzoic acid formation. The series is classed as ADME, cell-based, Hepatocyte.
Series [4] deals with Nuclear receptor subfamily 4 group A member 2 (Rattus norvegicus) (UniProt Q07917). The experiment in a line: Agonist activity at Nurr1 in rat mesencephalic primary neurons assessed as increase in tyrosine hydroxylase expression at 3 uM.
A short description of series [5]: Stability in mouse plasma. The series is classed as ADME, cell-free.
Series [6] in a line: Apparent permeability in human Caco2 cells. The series is classed as ADME, cell-based. To be noted: caco-2.
The target of series [7] is Nuclear receptor subfamily 4 group A member 2 (Mus musculus) (UniProt Q06219). The experiment in a line: Agonist activity at Nurr1 in mouse MG7 cells assessed as inhibition of LPS-induced IL1beta secretion at 3 uM. The series is classed as cell-based.
The nature of series [8]: Lipophilicity, log D of the compound. The series is classed as physicochemical. Conditions: octanol/water.
Series [9] can be described thus: Dissociation constant, pKa of the compound. The series is classed as physicochemical.
A short description of series [10]: Clearance in human hepatocytes assessed per million cells. The series is classed as ADME, cell-based, Hepatocyte.
Series [11] concerns the target Nuclear receptor subfamily 4 group A member 2 (Mus musculus) (UniProt Q06219). The experiment in a line: Agonist activity at Nurr1 in co-culture of mouse primary neurons and microglia assessed as inhibition of LPS-induced neurotoxicity by measuring neuroprotection at 3 uM. Also noted: scale not given: the % may be the effect or the level left.
Series [12] concerns the target Nuclear receptor subfamily 4 group A member 2 (Homo sapiens, UniProt P43354). The experiment in a line: Agonist activity at full-length Gal4-fused NOT (unknown origin) expressed in CHO cells by luciferase reporter gene assay. The series is classed as cell-based. To be noted: for EC50: read-out: EC50.
A short description of series [13]: Solubility of the compound by HPLC analysis. The series is classed as physicochemical.
The target of another series is Cytochrome P450 3A4 (Homo sapiens, UniProt P08684). The experiment in a line: Inhibition of CYP3A4 (unknown origin). The series is classed as ADME.
Series [14] has as its target Nuclear receptor subfamily 4 group A member 2 (Mus musculus, UniProt Q06219). Briefly: (§1) Agonist activity at Nurr1 in mouse N2A cells harboring NBRE by luciferase reporter gene assay. The series is classed as cell-based.
The target of series [15] is Nuclear receptor subfamily 4 group A member 2 (Mus musculus) (UniProt Q06219). The series is described as §1. The series is classed as cell-based.
The target in series [16] is T1, Voltage-gated inwardly rectifying potassium channel KCNH2 (Homo sapiens, UniProt Q12809). The experiment in a line: Activation of human ERG.
Another series deals with Cytochrome P450 2D6 (Homo sapiens, UniProt P10635). Briefly: Inhibition of CYP2D6 (unknown origin). The series is classed as ADME.
The target of the next series is Cytochrome P450 2C9 (Homo sapiens, UniProt P11712). The experiment in a line: Inhibition of CYP2C9 (unknown origin). The series is classed as ADME.
Series [17] is described as follows: Genotoxicity in Salmonella typhimurium by Ames test. The series is classed as toxicity. Conditions: salmonella enterica subsp. enterica serovar typhimurium.
A short description of series [18]: Drug metabolism in mouse liver microsomes. The series is classed as ADME, Microsome. Conditions: read-out: Drug metabolism.
Another series addresses CYP450 (Homo sapiens, UniProt P04798+P05177+P05181+P08684+P10632+P10635+P11509+P11712+P13584+P20813+P20815+P20853+P24462+P24903+P33260+P33261+P51589+P78329+P98187+Q02928+Q08477+Q16678+Q16696+Q5TCH4+Q6VVX0+Q7Z449+Q8TAV3+Q96SQ9+Q9HB55). The experiment in a line: Induction of CYP450 (unknown origin). The series is classed as ADME, protein assay.
Series [19] in a line: Stability in human plasma. The series is classed as ADME, cell-free.
The nature of series [20]: Drug metabolism in human liver microsomes. The series is classed as ADME, Microsome. Conditions: read-out: Drug metabolism.
Series [21] in a line: Cardiotoxicity in iv dosed anaesthetized dog assessed as electrocardiographic changes administered as single dose measured after 5 mins. The series is classed as toxicity, organism-based, Canis lupus familiaris. Conditions: in vivo.
The nature of series [22]: Cardiotoxicity in iv dosed anaesthetized guinea pig assessed as electrocardiographic changes administered as single dose measured after 5 mins. The series is classed as toxicity, organism-based, Cavia porcellus. To be noted: in vivo.
For series [23], the species on record is Rattus norvegicus. Briefly: Neuroprotective activity in poly(I:C)-induced Sprague-Dawley rat Parkinson's disease lesion model assessed as reduction in IL6 level. The series is classed as functional, organism-based.
Series [24] can be described thus: Cardiotoxicity in iv dosed anaesthetized guinea pig assessed as electrophysiological changes administered as single dose measured after 5 mins. The series is classed as toxicity, organism-based, Cavia porcellus. To be noted: in vivo.
The species named for series [25] is Rattus norvegicus. The experiment in a line: Neuroprotective activity in poly(I:C)-induced Sprague-Dawley rat Parkinson's disease lesion model assessed as reduction in brain gliosis. The series is classed as functional, organism-based.
Series [26] in a line: AUC in C57BL/6 mouse brain at 10 mg/kg, po administered as single dose. The series is classed as ADME, organism-based.
Series [27] can be described thus: AUC in C57BL/6 mouse plasma at 10 mg/kg, po administered as single dose. The series is classed as ADME, organism-based.
Series [28] can be described thus: Tmax in C57BL/6 mouse plasma at 10 mg/kg, po administered as single dose. The series is classed as ADME, organism-based.
Series [29] in a line: Ratio of AUC in C57BL/6 mouse brain to plasma at 10 mg/kg, po administered as single dose. The series is classed as ADME, organism-based. To be noted: read-out: Ratio AUC.
A short description of series [30]: Ratio of AUC in C57BL/6 mouse brain to plasma at 3 mg/kg, iv administered as single dose. The series is classed as ADME, organism-based. To be noted: read-out: Ratio AUC.
Series [31] is described as follows: Drug level in anaesthetized guinea pig heart administered as single iv dose. The series is classed as ADME, organism-based, Cavia porcellus. Conditions: in vivo, read-out: Drug uptake.
The nature of series [32]: Apparent half-life of the terminal disposition phase in C57BL/6 mouse brain at 3 mg/kg, iv administered as single dose. The series is classed as ADME, organism-based. Conditions: read-out: t1/2 lambda z (converted).
In a further series the test system is Cavia porcellus. The experiment in a line: Hemodynamic activity iv dosed anaesthetized guinea pig administered as single dose measured after 5 mins. To be noted: in vivo. The series is classed as ADME, organism-based.
Series [33] has as its target T1, Voltage-gated inwardly rectifying potassium channel KCNH2. Briefly: Inhibition of human ERG.
The nature of series [34]: Cardiotoxicity in iv dosed anaesthetized dog assessed as electrophysiological changes administered as single dose measured after 5 mins. The series is classed as toxicity, organism-based, Canis lupus familiaris. To be noted: in vivo.
A short description of series [35]: Cmax in C57BL/6 mouse plasma at 3 mg/kg, iv administered as single dose. Also noted: dose 3 mg/kg, route intravenous. The series is classed as ADME, organism-based.
The nature of series [36]: Drug level in anaesthetized dog heart administered as single iv dose. The series is classed as ADME, organism-based, Canis lupus familiaris. To be noted: in vivo, read-out: Drug uptake.
Series [37] is described as follows: Apparent half-life of the terminal disposition phase in C57BL/6 mouse brain at 10 mg/kg, po administered as single dose. The series is classed as ADME, organism-based. Conditions: read-out: t1/2 lambda z (converted).
Series [38] in a line: AUC in C57BL/6 mouse brain at 3 mg/kg, iv administered as single dose. The series is classed as ADME, organism-based.
A short description of series [39]: Cmax in C57BL/6 mouse plasma at 10 mg/kg, po administered as single dose. The series is classed as ADME, organism-based. Further details: dose 10 mg/kg, route oral.
Series [40] is described as follows: AUC in C57BL/6 mouse plasma at 3 mg/kg, iv administered as single dose. The series is classed as ADME, organism-based.
Series [41] is described as follows: Cmax in C57BL/6 mouse brain at 10 mg/kg, po administered as single dose. The series is classed as ADME, organism-based. Further details: dose 10 mg/kg, route oral.
The nature of series [42]: Apparent half-life of the terminal disposition phase in C57BL/6 mouse plasma at 3 mg/kg, iv administered as single dose. The series is classed as ADME, organism-based. Conditions: in vivo.
For series [43], the system named is Rattus norvegicus. The experiment in a line: Antiinflammatory activity in Sprague-Dawley rat assessed as inhibition of LPS-induced TNFalpha release at 30 mg/kg. The series is classed as functional.
The subject of a further series is Canis familiaris. Briefly: Hemodynamic activity iv dosed anaesthetized dog administered as single dose measured after 5 mins. The series is classed as ADME, organism-based, Canis lupus familiaris. Conditions: in vivo.
Series [44] is described as follows: Apparent half-life of the terminal disposition phase in C57BL/6 mouse plasma at 10 mg/kg, po administered as single dose. The series is classed as ADME, organism-based. Conditions: read-out: t1/2 lambda z (converted).
A short description of series [45]: Cmax in C57BL/6 mouse brain at 3 mg/kg, iv administered as single dose. Also noted: dose 3 mg/kg, route intravenous. The series is classed as ADME, organism-based.

The source made the active and inactive calls. No cut-off for these calls is given here.

Nuclear receptor subfamily 4 group A member 2 (Homo sapiens, UniProt P43354), sequence (P43354 whole entry, the tested form may be a part): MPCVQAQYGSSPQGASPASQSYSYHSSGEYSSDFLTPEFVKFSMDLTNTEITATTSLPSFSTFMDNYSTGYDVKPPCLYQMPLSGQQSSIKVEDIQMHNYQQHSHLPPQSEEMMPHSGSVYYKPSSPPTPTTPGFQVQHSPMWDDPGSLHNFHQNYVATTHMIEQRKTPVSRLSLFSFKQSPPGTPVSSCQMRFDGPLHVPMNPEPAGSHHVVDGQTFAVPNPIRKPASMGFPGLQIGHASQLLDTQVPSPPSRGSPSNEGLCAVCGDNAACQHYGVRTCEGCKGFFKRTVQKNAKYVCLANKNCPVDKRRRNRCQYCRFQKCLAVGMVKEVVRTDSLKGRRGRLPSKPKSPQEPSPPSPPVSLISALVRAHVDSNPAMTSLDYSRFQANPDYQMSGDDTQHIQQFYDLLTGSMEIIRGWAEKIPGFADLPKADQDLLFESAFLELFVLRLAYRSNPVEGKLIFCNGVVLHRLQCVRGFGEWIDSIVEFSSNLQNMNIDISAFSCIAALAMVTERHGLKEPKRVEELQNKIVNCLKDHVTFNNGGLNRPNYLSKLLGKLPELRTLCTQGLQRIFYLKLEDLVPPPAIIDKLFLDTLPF
Nuclear receptor subfamily 4 group A member 2 (Mus musculus), sequence (Q06219 whole entry, the tested form may be a part): as the sequence (P43354 whole entry, the tested form may be a part) above, with T131S, G134S, E354D counted along it
Nuclear receptor subfamily 4 group A member 2 (Rattus norvegicus), sequence (Q07917 whole entry): as the sequence (P43354 whole entry, the tested form may be a part) above, with T131S, P182R, E354D counted along it
T1 sequence (Q12809 whole entry): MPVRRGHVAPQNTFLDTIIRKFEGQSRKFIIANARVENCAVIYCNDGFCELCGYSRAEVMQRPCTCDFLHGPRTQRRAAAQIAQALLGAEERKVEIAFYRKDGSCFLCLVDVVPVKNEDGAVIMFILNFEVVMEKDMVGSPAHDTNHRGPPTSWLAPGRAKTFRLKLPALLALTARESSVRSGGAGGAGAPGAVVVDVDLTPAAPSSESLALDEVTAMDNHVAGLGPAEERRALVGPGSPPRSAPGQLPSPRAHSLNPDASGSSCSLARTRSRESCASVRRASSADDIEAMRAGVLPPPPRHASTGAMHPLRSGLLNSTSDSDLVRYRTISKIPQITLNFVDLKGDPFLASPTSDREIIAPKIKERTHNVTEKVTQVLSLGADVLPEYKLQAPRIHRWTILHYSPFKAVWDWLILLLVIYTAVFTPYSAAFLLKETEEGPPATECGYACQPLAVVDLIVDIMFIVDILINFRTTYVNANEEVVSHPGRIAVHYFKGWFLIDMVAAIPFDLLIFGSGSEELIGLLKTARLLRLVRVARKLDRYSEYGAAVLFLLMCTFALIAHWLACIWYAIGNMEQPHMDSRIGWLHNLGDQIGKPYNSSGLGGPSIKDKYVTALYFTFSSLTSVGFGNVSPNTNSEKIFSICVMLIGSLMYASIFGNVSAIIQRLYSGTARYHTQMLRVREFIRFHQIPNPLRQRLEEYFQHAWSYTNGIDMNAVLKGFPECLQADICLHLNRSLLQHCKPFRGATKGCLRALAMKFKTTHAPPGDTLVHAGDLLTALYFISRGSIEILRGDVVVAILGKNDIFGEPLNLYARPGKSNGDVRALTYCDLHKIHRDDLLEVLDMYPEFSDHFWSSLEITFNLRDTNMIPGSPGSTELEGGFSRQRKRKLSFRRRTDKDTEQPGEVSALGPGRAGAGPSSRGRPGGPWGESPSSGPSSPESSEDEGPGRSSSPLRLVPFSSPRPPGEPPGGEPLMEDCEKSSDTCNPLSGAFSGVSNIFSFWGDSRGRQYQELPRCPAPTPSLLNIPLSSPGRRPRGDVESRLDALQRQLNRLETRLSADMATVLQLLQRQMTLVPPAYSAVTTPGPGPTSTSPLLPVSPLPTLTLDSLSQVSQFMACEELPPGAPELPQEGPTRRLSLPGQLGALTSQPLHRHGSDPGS
Cytochrome P450 2C9, sequence (P11712 whole entry): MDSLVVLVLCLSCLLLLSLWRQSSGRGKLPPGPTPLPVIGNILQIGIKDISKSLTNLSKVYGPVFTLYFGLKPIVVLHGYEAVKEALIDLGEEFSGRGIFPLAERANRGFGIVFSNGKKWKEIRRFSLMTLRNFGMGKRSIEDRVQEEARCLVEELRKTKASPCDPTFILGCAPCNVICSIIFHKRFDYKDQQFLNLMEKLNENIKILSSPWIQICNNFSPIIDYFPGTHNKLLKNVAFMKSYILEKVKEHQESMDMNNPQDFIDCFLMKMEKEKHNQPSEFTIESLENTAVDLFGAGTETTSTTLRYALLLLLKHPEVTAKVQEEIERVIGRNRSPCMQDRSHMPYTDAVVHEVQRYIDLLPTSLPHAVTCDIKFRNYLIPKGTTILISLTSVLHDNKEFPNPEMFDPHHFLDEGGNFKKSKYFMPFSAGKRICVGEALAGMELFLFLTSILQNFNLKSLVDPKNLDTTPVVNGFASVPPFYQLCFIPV
Cytochrome P450 3A4, sequence (P08684 whole entry): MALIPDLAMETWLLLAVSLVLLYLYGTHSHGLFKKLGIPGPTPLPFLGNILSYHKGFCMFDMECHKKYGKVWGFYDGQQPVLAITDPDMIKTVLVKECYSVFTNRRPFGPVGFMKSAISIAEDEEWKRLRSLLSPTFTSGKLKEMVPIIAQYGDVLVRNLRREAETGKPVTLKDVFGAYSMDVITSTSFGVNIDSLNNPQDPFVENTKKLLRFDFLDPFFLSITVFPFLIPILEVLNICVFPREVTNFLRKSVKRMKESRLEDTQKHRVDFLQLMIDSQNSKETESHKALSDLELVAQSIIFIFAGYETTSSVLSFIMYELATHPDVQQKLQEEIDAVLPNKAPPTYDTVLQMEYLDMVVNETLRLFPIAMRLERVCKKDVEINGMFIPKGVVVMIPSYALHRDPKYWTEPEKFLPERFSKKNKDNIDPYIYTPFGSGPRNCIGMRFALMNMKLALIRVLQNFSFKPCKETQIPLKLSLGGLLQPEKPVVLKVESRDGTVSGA
Nuclear receptor subfamily 4 group A member 2 (Mus musculus, UniProt Q06219), sequence (Q06219 whole entry): as the sequence (P43354 whole entry, the tested form may be a part) above, with T131S, G134S, E354D counted along it
Cytochrome P450 2D6, sequence (P10635 whole entry): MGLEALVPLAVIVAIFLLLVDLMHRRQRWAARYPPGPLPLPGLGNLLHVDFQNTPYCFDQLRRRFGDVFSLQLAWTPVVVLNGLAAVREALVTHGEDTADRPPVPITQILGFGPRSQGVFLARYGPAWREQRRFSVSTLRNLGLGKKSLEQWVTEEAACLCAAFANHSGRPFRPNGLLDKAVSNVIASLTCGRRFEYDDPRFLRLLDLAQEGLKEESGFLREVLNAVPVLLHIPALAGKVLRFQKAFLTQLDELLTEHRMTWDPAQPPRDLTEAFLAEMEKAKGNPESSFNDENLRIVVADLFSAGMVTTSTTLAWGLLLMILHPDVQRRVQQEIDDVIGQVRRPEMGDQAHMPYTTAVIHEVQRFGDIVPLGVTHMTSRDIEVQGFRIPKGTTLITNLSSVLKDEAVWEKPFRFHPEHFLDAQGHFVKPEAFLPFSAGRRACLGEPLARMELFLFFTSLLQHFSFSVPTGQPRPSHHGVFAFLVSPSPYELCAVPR

Consider `O=C(O)c1cccc(-c2ccc3nc(-c4ccc(Cl)cc4)cn3c2)c1`, for which, in series [1], the Drug metabolism result is reported as “Metabolite_Detected”.

Regarding `OCc1cccc(-c2ccc3nc(-c4ccc(Cl)cc4)cn3c2)c1`, the Activity is 65% in [2], 188 to 313% in series [4], 37% in series [11] and “Non-Toxic” in series [17]. In addition, the Drug metabolism entry in series [3] is “Metabolite_Detected”. Moreover, the Stability result in series [5] and in series [19] was “Stable” in each case. In addition, the permeability result in [6] is given as “Permeable”. The inhibition in [7] amounted to 58%. This compound also gave a logD in series [8] of 2.95. This compound also gave a pKa in series [9] of 5.16. Moreover, the CLH in series [10] amounted to 0.42 mL/h. In addition, the Emax was 239% in series [12], 240% in series [15] and less than 20% on CYP450. The EC50 in series [12] is 45 to 75 nM; in [14] it was 1 nM; in series [16] it was 900 nM. Moreover, in [13], the solubility was less than 1 µM. Besides, the IC50 is more than 10000 nM against Cytochrome P450 3A4, more than 10000 nM at Cytochrome P450 2D6 and 8600 nM at Cytochrome P450 2C9. The metabolised in series [18] was 8%; in [20] it was 22%.

Regarding `CC(C)(O)c1cccc(-c2ccc3nc(-c4ccc(Cl)cc4)cn3c2)c1`, the Activity result was “Non-Toxic” in [21]; “Non-Toxic” in [22]; 188 to 284% in series [4]; “Non-Toxic” in series [24]; “Non-Toxic” in the series on Cavia porcellus; 86 to 99% in [11]. Also, the Activity result (in series [34]; in the series on Canis familiaris) was “Non-Toxic” in each case. Moreover, the result in the series listed under Rattus norvegicus [23] and in the series listed under Rattus norvegicus [25] was Active. The AUC worked out at 55600 ng·h/mL in series [26], 70300 ng·h/mL in series [27], 15000 ng·h/mL in series [38] and 20600 ng·h/mL in series [40]. Further, the inhibition in series [7] was in the range of 28 to 46%. In addition, in series [28], the Tmax is 24 h. The values for the Kp in series [29] and in series [30] were 0.8 and 0.7, respectively. Also, the results for the concentration in [31] and in series [36] were not above 17 µM and 40 µM, respectively. In series [10], the CLH stood at 0.051 mL/h. For the same compound, the results for the half-life in series [32], in series [37] and in [44] were 91.2 h, 197 h and 194 h, respectively. The EC50 in series [12] stood at 218 nM. In series [33], this compound yielded an IC50 of 1500 nM. The Cmax in series [35] was found to be 4870 ng/mL; in series [39], 4170 ng/mL; in series [41], 3080 ng/mL; in [45], 2630 ng/mL. The t1/2 lambda z in series [42] came out at 98.4 h. Also, in the series with Rattus norvegicus [43], the inhibition in vivo at 30 mg/kg worked out at 47%.
